The values that follow come from article PMC11756168, “Drug-drug interaction between ensitrelvir and tacrolimus in a patient undergoing treatment for COVID-19: a case report” (Journal of Pharmaceutical Health Care and Sciences, 2025).

“Also recorded” adds a separate entry of the source.

As usually defined, the Vd is a proportionality between amount in the body and measured concentration, not a real space.

Data set [1] has as its system CYP3A.
Another data set concerns SARS-CoV-2. The experiment in a line: SARS-CoV2 PCR cycle threshold (Ct) in the patient. Format: in vivo. On the procedure: On the day of admission, the patient was started on a five-day course of remdesivir (200 mg IV once, followed by 100 mg IV every 24 h for 4 days). The patient was also administered corticosteroid (day -30 to -21, dexamethasone 6 mg PO, once daily after breakfast; day -20 to -17, prednisolone 30 mg PO, once daily after breakfast). On day -23, baricitinib (2 mg PO, once daily after breakfast for 6 days) was administered. On day -17, methylprednisolone (1,000 mg IV, once daily for 5 days) was administered, followed by dexamethasone (6 mg IV, once daily after breakfast). The cycle threshold (Ct) value from the SARS-CoV2 PCR after treatment ([…]) was 25.73, indicating persistent viral presence; therefore, a second five-day course of remdesivir was administered. On day -13, tocilizumab (360 mg IV, once daily) was administered. […] Consequently, a third course of remdesivir was initiated on day -2 (200 mg IV once, followed by 100 mg IV daily for 9 days). On day 0, the patient was started on ensitrelvir treatment (375 mg PO once, followed by 125 mg PO for 4 days) in combination with remdesivir. At the time of the start of ensitrelvir therapy (day 0), the patient was taking the following medications: TAC (1.5 mg PO, once daily after dinner), dexamethasone (6 mg IV, once daily), sulfamethoxazole/trimethoprim (400 mg/80 mg PO, once daily after breakfast), rosuvastatin (5 mg PO, once daily after breakfast), nicorandil (5 mg PO, 3 times daily after meals), aspirin (100 mg PO, once daily after breakfast), esomeprazole (20 mg PO, once daily after breakfast), rivastigmine patch (18 mg, once daily), and subcutaneous denosumab (60 mg, every six months). The patient had received a COVID-19 vaccine approximately one year ago. The patient had no supplements or over-the-counter drugs. Grapefruit was not offered during the hospital stay. Before the start of ensitrelvir therapy, a clinical pharmacist informed the attending physician regarding the potential DDI between ensitrelvir and TAC or rosuvastatin (BCRP substrate) and recommended avoiding the concomitant use. Consequently, TAC was discontinued from the day before the start of ensitrelvir (day -1), and TAC blood levels were frequently monitored using a Siemens Dimension EXL200 with Flex Cartridge Tacrolimus (ACMIA method, Siemens). Rosuvastatin treatment was discontinued on day 0. Given that ensitrelvir is metabolized by CYP3A [17], dexamethasone, which reportedly induces CYP3A [18], was replaced with methylprednisolone on day 1.

Data set [2] can be described thus: Laboratory parameters (Scr, ALT) in the patient. Format: in vivo, human.
Data set [3] can be described thus: CT imaging of the lungs in the patient. To be noted: day 18, after ensitrelvir in combination with remdesivir. Type of data set: in vivo, human.
The subject of data set [4] is CYP3A. As to conditions: ensitrelvir co-administration; cited from earlier work.
For the next data set, the system named is P-glycoprotein (P-gp). More on the design: method as in PMID 37043676, PMID 37171749. As to conditions: cited from earlier work.
The conditions of data set [5]: cited from earlier work.
In a further data set the test system is CYP3A and P-gp. As to conditions: cited from earlier work.
For data set [6], the system named is Cytochrome P450 3A (CYP3A). As to conditions: cited from earlier work.
A further data set deals with P-gp. Also on record: method as in PMID 37043676. As to conditions: cited from earlier work.
A short description of data set [7]: Pharmacokinetics of ensitrelvir (literature). Type of data set: in vivo, human. To be noted: suggested from t1/2 51.4 h.
Data set [8] relates to breast cancer resistance protein (BCRP). More on the design: method as in PMID 37043676, PMID 37171749. To be noted: cited from earlier work.
Data set [9] is described as follows: Pharmacokinetics of TAC (literature). To be noted: human, blood; assumed, 1 L/kg at body weight 42 kg; read-out: volume of distribution (Vd) of TAC. Type of data set: in vivo.
Data set [10] is described as follows: TAC blood level monitoring (Siemens Dimension EXL200, ACMIA method) in the patient. As to conditions: human.
Data set [11] in a line: One-compartment simulation of TAC levels with various F values. Also on record: species or system human. As to conditions: for half-life: human, blood, oral, read-out: Estimated TAC half-life (converted). The text has this:
(§1) t1/2=0.693/ke Cmax=Ctrough+F*Dose/Vd
(§2) where C1 and C2 represent the TAC blood levels at times T1 and T2 in the same dosing interval (T2 > T1), respectively. Ctrough represents TAC blood levels immediately before administration and dose represents the TAC dose. The volume of distribution (Vd) was assumed to be 42 L (1 L/kg based on a body weight of 42 kg). If the Ctrough was unavailable, Ctrough was estimated using ke.
Next, we evaluated the duration of DDI using ensitrelvir. […] Consequently, when F was set to 0.125, the simulated TAC levels matched the measured levels at 7:00 on day 8 (Supplemental Table S1). The estimated F value of TAC (0.125) was similar to that reported in a previous report (0.25 ± 0.20), which indicates the limited effect of ensitrelvir on the intestinal absorption of TAC. […] These pharmacokinetic analyses indicate that the DDI effect of ensitrelvir gradually diminishes over 7–10 days after its discontinuation. […] Therefore, caution regarding DDI with ensitrelvir should be exercised for 7–10 days after discontinuation of ensitrelvir. Furthermore, in the case of irreversible CYP3A inhibition, the timing of CYP3A expression recovery varies among individuals. Therefore, TAC after ensitrelvir treatment should be restarted at a reduced dosage and its blood levels should be closely monitored.
^a The tacrolimus level was estimated using a one-compartment pharmacokinetics model for oral administration, without considering the absorption rate constant. For tacrolimus levels after day 8, only values predicted with F = 0.125 are shown.

Data set [12] in a line: One-compartment calculation of TAC elimination half-life from consecutive blood levels. To be noted: human, po, 1.5 mg, read-out: calculated t1/2 of TAC (converted). Format: in vivo. On the procedure: Assuming a one-compartment model, the elimination rate constant (ke), elimination half-life (t1/2), and maximum plasma concentration (Cmax) of TAC were calculated as follows: ke=lnC1/C2/T2-T1
as §1, §2

The conditions of data set [13]: cited from earlier work. The source holds these as a separate data set.

With `Cn1cnc(Cn2c(=O)[nH]/c(=N\c3cc4cn(C)nc4cc3Cl)n(Cc3cc(F)c(F)cc3F)c2=O)n1` [ensitrelvir, Ensitrelvir], in the data set on CYP3A [1] (after discontinuation of ensitrelvir), the “time over which the DDI effect diminished/resolved” value lay in the range of 7 to 10 days. Also, the “increase in the AUC of TAC by inhibition of CYP3A in the liver” value in the data set on CYP3A [1] (inferred from t1/2 prolongation) is given as “threefold increase”. Further, the “SARS-CoV-2 PCR Ct value” in the data set on SARS-CoV-2 (day 0, start of ensitrelvir in combination with remdesivir) is 25.88. The “SARS-CoV-2 PCR Ct value” in the data set with SARS-CoV-2 (day 5, ensitrelvir in combination with remdesivir) stood at 30.03. Further, the “SARS-CoV-2 PCR Ct value” in the data set on SARS-CoV-2 (day 12, after ensitrelvir in combination with remdesivir) stood at 34.36. In the data set with SARS-CoV-2 (day 19, after ensitrelvir in combination with remdesivir), the “SARS-CoV-2 PCR Ct value” turned out to be 34.89. In data set [2] (during ensitrelvir treatment), the Scr level result was “remained within normal ranges” and the “alanine aminotransferase (ALT) level” value was “remained within normal ranges”. The “CT imaging of lung fields” value in data set [3] was “improved inflammation in both lung fields”. In addition, in the data set with CYP3A [4], the “increase of AUC of midazolam” value is 6.7 fold and the “increase of t1/2 of midazolam” value is 2.3 fold. In addition, in the data set with P-glycoprotein (P-gp), the “inhibition of P-gp” value was “strongly inhibits”. For the same molecule, in data set [5], the half-life of ensitrelvir entry is “approximately 50 h”. Moreover, the “increase in TAC trough/blood levels with concurrent ensitrelvir” value with CYP3A and P-gp is “approximately threefold; also recorded: approximate three-fold increase”. In data set [6], the “inhibition of CYP3A” value is recorded as “strongly inhibits”; the “manner of CYP3A inhibition” value is “time-dependent and irreversible manner”. Besides, the “effect on AUC of digoxin (P-gp substrate)” value in the data set on P-gp is “increased the AUC of digoxin”. Further, the “time required to clear ensitrelvir from the body” value in data set [7] lay within 7 to 8 days. Besides, the “inhibition of BCRP” value in data set [8] was “strongly inhibits”.
Consider `C=CC[C@@H]1/C=C(\C)C[C@H](C)C[C@H](OC)[C@H]2O[C@@](O)(C(=O)C(=O)N3CCCC[C@H]3C(=O)O[C@H](/C(C)=C/[C@@H]3CC[C@@H](O)[C@H](OC)C3)[C@H](C)[C@@H](O)CC1=O)[C@H](C)C[C@@H]2OC` [TAC, Tacrolimus], for which the Vd in data set [9] turned out to be 42 L. This molecule also had a concentration at 11 h in data set [10] (oral) of 5.1 ng/mL. Further, the concentration at 12 h in data set [10] (oral, 1 mg) amounted to 6.5 ng/mL; in [10] (po, 1 mg), 3.9 ng/mL. In [10] (oral, 1 mg), this molecule registered a concentration at 20 h of 3.7 ng/mL. The concentration at 21.5 h in [10] (oral, 1.5 mg) was 3.6 ng/mL. This molecule had a concentration at 35.5 h in data set [10] (oral, 1.5 mg) of 2.7 ng/mL. Further, the concentration at 83.5 h in data set [10] (oral, 1.5 mg) amounted to 1.7 ng/mL. For the same molecule, in data set [10] (oral, 1.5 mg), the concentration at 155.5 h came out at 1.1 ng/mL. For the same molecule, the concentration at 5 days in data set [10] (oral, 2 mg) is 6.6 ng/mL. For the same molecule, the concentration at 36 h in [10] (po, 0.2 mg) is 1 ng/mL. Moreover, the Scr levels entry in [2] (TAC maintained at 1.5 mg daily, normal range 0.75—1.0 mg/dL) is reported as “within normal range”. Also, the “estimated F value of TAC” value in data set [11] (after ensitrelvir administration, simulated levels matched measured level at 7:00 on day 8) was 0.125. In addition, the half-life was 39.9 h in [11] (1 mg, day 8 to 12, assuming bioavailability 0.125); 23.4 h in data set [11] (1 mg, day 12 to 14, assuming bioavailability 0.125); 115 h in [11] (Day5, 7:00 to Day8, 7:00, hypothesized to continue from days 2-5 until day 8); 71.9 h in [12] (day 0 to 2, under ensitrelvir); 115 h in data set [12] (day 2 to 5, under ensitrelvir); 33.7 h in data set [12] (day -1 to 0, before ensitrelvir). For the same molecule, the “volume of distribution (Vd) of TAC” value in data set [13] (assumed) is listed as 1 L/kg. Further, in [13], the “F value of TAC in a previous report” value was 0.25 ± 0.20. Moreover, in data set [13], the “reported t1/2 of TAC” value is recorded as 32 h.
Consider `CCC(CC)COC(=O)[C@H](C)N[P@](=O)(OC[C@H]1O[C@@](C#N)(c2ccc3c(N)ncnn23)[C@H](O)[C@@H]1O)Oc1ccccc1` [remdesivir], for which the “SARS-CoV2 PCR Ct value” came out at 25.73 in the data set on SARS-CoV-2 (after first five-day course of remdesivir, day 15 (so in the source)) and 26.18 in the data set with SARS-CoV-2 (day -7, after second five-day course of remdesivir).
